The values below are quoted from earlier work in publication PMC10254530, “Design and Synthesis of Brefeldin A-Isothiocyanate Derivatives with Selectivity and Their Potential for Cervical Cancer Therapy” (Molecules, 2023).

One may read the IC50 as the midpoint of a concentration-inhibition curve.

Data set [1] relates to human T lymphoblastoid cell line Jurkat. Set-up: method as in PMID 22200402. Particulars: 0.5 μM; cited from earlier work.
Data set [2] relates to U87 cells. Also on record: method as in PMID 35557894. The settings on record: glioblastoma multiforme U87 cells in vitro; read-out: IC50, cytotoxic activity against U87 cells; cited from earlier work.

Turning to `O=C1c2ccc3c4c(ccc(c24)C(=O)N1CCCN=C=S)C(=O)N(CCCN=C=S)C3=O` [derivative A], in data set [1], the “effect on apoptosis in Jurkat cells” value was “induced apoptosis by activating caspase-8”.
Consider `C[C@@H]1CCC2[C@@H](C)[C@@H](OCCCN=C=S)O[C@@H]3O[C@@]4(C)CCC1[C@@]23OO4` (some centres unmarked) [compound B], for which the IC50 in data set [2] is 7.41 µM.
